PubChem BioAssay (NCI)
In brackets after ≈: the same amount, converted by molar mass.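 Results reflect a 48-hour exposure of cells in 96-well plates to compound at five concentrations. Abbreviation: GI50, concentration required for 50% inhibition of growth. TGI: total growth inhibition.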

Key:
Assay in all cases: NCI-60 cell line screen, 48 h
[1] = test system: MCF7 breast
[2] = test system: UACC-62 melanoma
[3] = test system: LXFL 529 NSCLC
[4] = test system: XF 498 CNS
[5] = test system: DMS 114 small cell lung
[6] = test system: SNB-78 CNS
[7] = test system: RXF-631 renal
[8] = test system: DLD-1 colon
[9] = test system: M19-MEL melanoma
[10] = test system: HOP-18 NSCLC
[11] = test system: DMS 273 small cell lung
[12] = test system: KM20L2 colon

SMILES: c1ccc(C2=NN2c2ccccc2)cc1
- TGI [1]: > 100 µM
- TGI [2]: > 100 µM

SMILES: O=C=C=P(c1ccccc1)(c1ccccc1)c1ccccc1
- TGI [3]: > 100 µM
- TGI [4]: 89.7 µM
- TGI [5]: > 100 µM
- TGI [6]: > 100 µM
- TGI [7]: > 100 µM
- TGI [8]: > 100 µM
- TGI [9]: > 100 µM
- TGI [10]: > 100 µM
- TGI [11]: > 100 µM

SMILES: O=Cc1cn(CCCCCCCCn2cc(C=O)c3ccccc32)c2ccccc12
- TGI [1]: > 10 µM
- TGI [2]: > 10 µM

SMILES: ICC1CCCO1 (stereo unspecified)
- TGI [3]: > 100 µM
- TGI [4]: > 100 µM
- TGI [5]: > 100 µM
- TGI [6]: > 100 µM
- TGI [7]: > 100 µM
- TGI [8]: > 100 µM
- TGI [12]: > 100 µM
- TGI [10]: > 100 µM
- TGI [11]: > 100 µM

SMILES: CCOP(=O)(C/C=C/Cn1ncc(=O)[nH]c1=O)OCC
- TGI [1]: > 100 µM

SMILES: Cc1nc2nc(C)n(CCN3CCOCC3)c(=O)c2c(-c2cccc([N+](=O)[O-])c2)c1C(=O)CCCCCCCCCCN1CCC(c2ccccc2)(c2ccccc2)CC1
- GI50 [1]: 1.67 µg/mL (≈ 2.06 µM)
- TGI [1]: 3.65 µg/mL

SMILES: CC1(C)OCC(CO)(CO)CO1
- TGI [1]: > 100 µM
